Peptide text beside a SMILES is read from it. * marks the point of attachment. Cbz = O=C(OCc1ccccc1)*; Acryloyl = C=CC(=O)*
Legend:
[1] = target: gplTG2; conditions: cited from earlier work; for K1 values: gplTG2, in words
[2] = target: T1, hTG2 (Homo sapiens, UniProt P21980); test: In vitro GTP binding assay; conditions: inhibitor at 2KI, 30 min, 25 °C; 3 μM BODIPY GTP-γ-S
T1 sequence (P21980 1-687): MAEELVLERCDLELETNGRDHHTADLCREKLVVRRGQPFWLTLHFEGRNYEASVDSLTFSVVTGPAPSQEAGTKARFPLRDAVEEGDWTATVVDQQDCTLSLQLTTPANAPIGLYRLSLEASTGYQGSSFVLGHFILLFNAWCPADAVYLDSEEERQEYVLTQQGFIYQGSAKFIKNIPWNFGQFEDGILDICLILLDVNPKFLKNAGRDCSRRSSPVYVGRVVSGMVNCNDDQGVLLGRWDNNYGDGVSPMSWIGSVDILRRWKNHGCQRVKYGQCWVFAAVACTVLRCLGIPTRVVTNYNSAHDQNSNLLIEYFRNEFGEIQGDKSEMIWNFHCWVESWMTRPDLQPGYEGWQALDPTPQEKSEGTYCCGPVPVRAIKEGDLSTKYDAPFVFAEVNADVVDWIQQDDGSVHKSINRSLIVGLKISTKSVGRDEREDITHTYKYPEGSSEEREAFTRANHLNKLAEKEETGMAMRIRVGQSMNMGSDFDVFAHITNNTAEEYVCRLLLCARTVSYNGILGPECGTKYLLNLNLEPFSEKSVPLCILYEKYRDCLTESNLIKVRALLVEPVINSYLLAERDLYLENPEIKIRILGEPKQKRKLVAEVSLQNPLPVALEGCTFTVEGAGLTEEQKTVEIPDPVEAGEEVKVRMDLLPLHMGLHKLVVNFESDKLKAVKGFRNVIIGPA

[3] = target: T1, hTG2; test: Colorimetric transamidase activity assay
[4] = target: T1, hTG2; conditions: pH 6.5
[5] = system: epidermal cancer stem (ECS) cells (SCC-13); test: Cell invasion assay; type: cell-based, human
[6] = target: T1, hTG2; test: Inhibition irreversibility; type: biochemical; conditions: compared to uninhibited hTG2
[7] = system: epidermal cancer stem (ECS) cells; conditions: cited from earlier work
[8] = system: mouse xenograft tumors initiated by injection of cancer stem cells; conditions: intraperitoneal injection, 20 mg/kg; cited from earlier work

C=CC(=O)NCCCC[C@H](NC(=O)OCc1ccccc1)C(=O)NCC(=O)O [Compound 2, (S)-2-(6-Acrylamido-2-(((benzyloxy)carbonyl)amino)-hexanamido)acetic Acid] (Cbz-Lys(Acryloyl)-Gly-OH)
K1 values [1]: high nanomolar range | efficiency constants (kinact/KI) ([1]; gplTG2): 10^6 M^−1 min^−1

C=CC(=O)NCCCC[C@H](NC(=O)OCc1ccccc1)C(=O)N1CCN(C(=O)c2cccc3ccccc23)CC1 [Compound 49, (S)-Benzyl (1-(4-(1-Naphthoyl)piperazin-1-yl)-6-acrylamido-1-ox-ohexan-2-yl)carbamate]
GTP binding ability of hTG2 after incubation with inhibitor [2]: abolishing GTP binding nearly completely | kinact/KI [3]: > 1670 M⁻¹ s⁻¹

C=CC(=O)NCCCC[C@H](NC(=O)OCc1ccccc1)C(=O)N1CCOCC1 [Compound 59]
kinact [4]: 0.0245 s⁻¹

C=CC(=O)NCCCC[C@H](NC(=O)OCc1ccccc1)C(=O)N1CCN(S(=O)(=O)c2cccc3c(N(C)C)cccc23)CC1 [Compound 13, (S)-Benzyl (6-Acrylamido-1-(4-((5-(dimethylamino)naphthalen-1-yl)sulfonyl)piperazin-1-yl)-1-oxohexan-2-yl)carbamate]
GTP binding ability of hTG2 after incubation with inhibitor [2]: abolishing GTP binding nearly completely | Hill slope ([5]; three-parameter sigmoidal fit of invasion data, maximum fixed at 100): 1.16 ± 0.13 | recovered hTG2 activity after filtration (10 kDa cutoff) and dilution [6]: no recovered activity | kinact/KI [3]: > 1670 M⁻¹ s⁻¹ | reduction in the inhibition binding constant compared to 3 ([3]; hTG2): greater than 2 fold

C=CC(=O)NCCCC[C@H](NC(=O)OCc1ccccc1)C(=O)N1CCN(S(=O)(=O)c2cccc3ccccc23)CC1 [Compound 30, (S)-Benzyl 6-Acrylamido-1-(4-(naphthalen-1-ylsulfonyl)piperazin-1-yl)-1-oxohexan-2-yl-carbamate]
kinact less than that of 13 ([3]; hTG2): more than 3 fold

C=CC(=O)NCCCC[C@H](NC(=O)OCc1ccccc1)C(=O)NCCOCCOCCNS(=O)(=O)c1cccc2c(N(C)C)cccc12 [Compound 3, (S)-Benzyl-(1-((5-(dimethylamino)naphthalene)-1-sulfonamido)-10,17-dioxo-3,6-dioxa-9,16-diazanonadec-18-en-11-yl)carbamate]
EC50 ([5]; Homo sapiens, SCC-13, 18 h, read-out: EC50, inhibition of ECS cell invasion): > 20 µM | kinact ([1]; gplTG2): 0.483 min⁻¹ | ECS cell proliferation and survival ([7]; 20 μM): reduced ECS cell proliferation and survival | effect in TG2 knockout ECS cells ([7]; TG2 knockout ECS cells): no effect | growth of mouse xenograft tumors [8]: reduced the growth | increase in overall efficiency (kinact/KI), hTG2 versus gplTG2 ([3]; hTG2 compared to gplTG2): 5 fold

NC(=O)CI [iodoacetamide, reference compound]
GTP binding ability of hTG2 after incubation with inhibitor [2]: did not perturb its GTP-binding ability | inhibition of hTG2 acyltransferase activity ([3]; in words): irreversible inhibition

C=CC(=O)NCCCC[C@H](NC(=O)OCc1ccccc1)C(=O)O [Compound 1, (S)-6-Acrylamido-2-(((benzyloxy)carbonyl)amino)hexanoic Acid]
K1 values [1]: high nanomolar range

C=CC(=O)NCCCC[C@H](NC(=O)OCc1ccccc1)C(N)=O [Compound 4, (S)-Benzyl-(6-acrylamido-1-amino-1-oxohexan-2-yl)carbamate]
GTP binding ability of hTG2 after incubation with inhibitor [2]: able to abolish GTP binding

Reference: article PMC6452631 (Journal of medicinal chemistry, 2017)
